Laboratory results from PubChem BioAssay AID1963836 (Molecular Pharmacology Branch, DTP, NCI, 2024).

System: 857933-349-R-J2-PDC complex spheroid viability
Experiment: Anticancer human tumor 857933-349-R-J2-PDC patient-derived colon adenocarcinoma cell line growth inhibition [POLQ]
Settings: for IC50: curve of first compound; for viability, T/C: stronger effect = lower value
Outline: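 PDC + HUVEC + MSC complex spheroids; POLQ inhibitors ± partner drugs; top conc. at/near clinical Cmax, else 10 microM (SN-38 1 microM), half-log dilutions; 37 degrees C, 5% CO2.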

[1] = second compound 0.0316 µM, first compound 0.0316 µM
[2] = second compound 0.0316 µM, first compound 0.1 µM
[3] = second compound 0.0316 µM, first compound 0.316 µM
[4] = second compound 0.0316 µM, first compound 1 µM
[5] = second compound 0.0316 µM, first compound 3.16 µM
[6] = second compound 0.0316 µM, first compound 10 µM
[7] = second compound 0.1 µM, first compound 0.0316 µM
[8] = second compound 0.1 µM, first compound 0.1 µM
[9] = second compound 0.1 µM, first compound 0.316 µM
[10] = second compound 0.1 µM, first compound 1 µM
[11] = second compound 0.1 µM, first compound 3.16 µM
[12] = second compound 0.1 µM, first compound 10 µM
[13] = second compound 0.316 µM, first compound 0.0316 µM
[14] = second compound 0.316 µM, first compound 0.1 µM
[15] = second compound 0.316 µM, first compound 0.316 µM
[16] = second compound 0.316 µM, first compound 1 µM
[17] = second compound 0.316 µM, first compound 3.16 µM
[18] = second compound 0.316 µM, first compound 10 µM
[19] = second compound 1 µM, first compound 0.0316 µM
[20] = second compound 1 µM, first compound 0.1 µM
[21] = second compound 1 µM, first compound 0.316 µM
[22] = second compound 1 µM, first compound 1 µM
[23] = second compound 1 µM, first compound 3.16 µM
[24] = second compound 1 µM, first compound 10 µM
[25] = second compound 3.16 µM, first compound 0.0316 µM
[26] = second compound 3.16 µM, first compound 0.1 µM
[27] = second compound 3.16 µM, first compound 0.316 µM
[28] = second compound 3.16 µM, first compound 1 µM
[29] = second compound 3.16 µM, first compound 3.16 µM
[30] = second compound 3.16 µM, first compound 10 µM
[31] = second compound 10 µM, first compound 0.0316 µM
[32] = second compound 10 µM, first compound 0.1 µM
[33] = second compound 10 µM, first compound 0.316 µM
[34] = second compound 10 µM, first compound 1 µM
[35] = second compound 10 µM, first compound 3.16 µM
[36] = second compound 10 µM, first compound 10 µM
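Further: spheroids exposed to compounds for seven days before readout.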

## COc1ccc([C@@H](O)c2cc(-c3ncnc4cc(N5CCOCC5)ccc34)c(F)cc2Cl)nn1 + Cc1cccc(N(C)C(=O)C2C(O)CCN2c2nc(C)cc(C(F)(F)F)c2C#N)c1
Second compound 0.0316 µM
  IC50: > 10000 nM
Second compound 0.1 µM
  IC50: > 10000 nM
Second compound 0.316 µM
  IC50: > 10000 nM
Second compound 1 µM
  IC50: > 10000 nM
Second compound 3.16 µM
  IC50: 8540 nM
Second compound 10 µM
  IC50: > 10000 nM
[1]
  viability, T/C: 118%
[2]
  viability, T/C: 90.8%
[3]
  viability, T/C: 88.6%
[4]
  viability, T/C: 73.4%
[5]
  viability, T/C: 71.6%
[6]
  viability, T/C: 64.2%
[7]
  viability, T/C: 91.8%
[8]
  viability, T/C: 114%
[9]
  viability, T/C: 91.1%
[10]
  viability, T/C: 79%
[11]
  viability, T/C: 72.8%
[12]
  viability, T/C: 57.7%
[13]
  viability, T/C: 110%
[14]
  viability, T/C: 116%
[15]
  viability, T/C: 83.6%
[16]
  viability, T/C: 88.8%
[17]
  viability, T/C: 93.7%
[18]
  viability, T/C: 62.8%
[19]
  viability, T/C: 91.9%
[20]
  viability, T/C: 97.3%
[21]
  viability, T/C: 119%
[22]
  viability, T/C: 63.8%
[23]
  viability, T/C: 91.6%
[24]
  viability, T/C: 56.8%
[25]
  viability, T/C: 87.1%
[26]
  viability, T/C: 87.4%
[27]
  viability, T/C: 95.5%
[28]
  viability, T/C: 71.5%
[29]
  viability, T/C: 85.6%
[30]
  viability, T/C: 44.4%
[31]
  viability, T/C: 97.9%
[32]
  viability, T/C: 97.5%
[33]
  viability, T/C: 76.3%
[34]
  viability, T/C: 61.6%
[35]
  viability, T/C: 71.9%
[36]
  viability, T/C: 49.2%

## O=C(c1cc(Cc2n[nH]c(=O)c3ccccc23)ccc1F)N1CCN(C(=O)C2CC2)CC1 + Cc1cccc(N(C)C(=O)C2C(O)CCN2c2nc(C)cc(C(F)(F)F)c2C#N)c1
Second compound 0.0316 µM
  IC50: > 10000 nM
Second compound 0.1 µM
  IC50: > 10000 nM
Second compound 0.316 µM
  IC50: > 10000 nM
Second compound 1 µM
  IC50: > 10000 nM
Second compound 3.16 µM
  IC50: > 10000 nM
Second compound 10 µM
  IC50: > 10000 nM
[1]
  viability, T/C: 109%
[2]
  viability, T/C: 99.4%
[3]
  viability, T/C: 85.3%
[4]
  viability, T/C: 72.5%
[5]
  viability, T/C: 93.4%
[6]
  viability, T/C: 84.7%
[7]
  viability, T/C: 109%
[8]
  viability, T/C: 101%
[9]
  viability, T/C: 93.8%
[10]
  viability, T/C: 83.8%
[11]
  viability, T/C: 69.7%
[12]
  viability, T/C: 72.9%
[13]
  viability, T/C: 107%
[14]
  viability, T/C: 98.1%
[15]
  viability, T/C: 70.5%
[16]
  viability, T/C: 96.2%
[17]
  viability, T/C: 89.8%
[18]
  viability, T/C: 80.3%
[19]
  viability, T/C: 84.7%
[20]
  viability, T/C: 80.9%
[21]
  viability, T/C: 86.2%
[22]
  viability, T/C: 79%
[23]
  viability, T/C: 73.7%
[24]
  viability, T/C: 82.6%
[25]
  viability, T/C: 67%
[26]
  viability, T/C: 79.2%
[27]
  viability, T/C: 81.6%
[28]
  viability, T/C: 87.2%
[29]
  viability, T/C: 72.8%
[30]
  viability, T/C: 92.2%
[31]
  viability, T/C: 86.5%
[32]
  viability, T/C: 110%
[33]
  viability, T/C: 82.6%
[34]
  viability, T/C: 84%
[35]
  viability, T/C: 71.3%
[36]
  viability, T/C: 79.9%

## O=c1[nH]cc(F)c(=O)[nH]1 + Nc1ccc(C#CCN(C(=O)Cc2ncc(C(F)(F)F)cc2C(F)(F)F)c2ccc(F)cc2)nn1
Second compound 0.0316 µM
  IC50: 2150 nM
Second compound 0.1 µM
  IC50: 2130 nM
Second compound 0.316 µM
  IC50: 2450 nM
Second compound 1 µM
  IC50: 2280 nM
Second compound 3.16 µM
  IC50: 2330 nM
Second compound 10 µM
  IC50: 2170 nM
[1]
  viability, T/C: 101%
[2]
  viability, T/C: 98.7%
[3]
  viability, T/C: 100%
[4]
  viability, T/C: 83.4%
[5]
  viability, T/C: 33.1%
[6]
  viability, T/C: 25.1%
[7]
  viability, T/C: 102%
[8]
  viability, T/C: 93.5%
[9]
  viability, T/C: 93.3%
[10]
  viability, T/C: 75.2%
[11]
  viability, T/C: 36.5%
[12]
  viability, T/C: 22.7%
[13]
  viability, T/C: 106%
[14]
  viability, T/C: 120%
[15]
  viability, T/C: 97.2%
[16]
  viability, T/C: 84.4%
[17]
  viability, T/C: 39.2%
[18]
  viability, T/C: 23.3%
[19]
  viability, T/C: 106%
[20]
  viability, T/C: 103%
[21]
  viability, T/C: 97.5%
[22]
  viability, T/C: 81.6%
[23]
  viability, T/C: 37.2%
[24]
  viability, T/C: 22.4%
[25]
  viability, T/C: 105%
[26]
  viability, T/C: 106%
[27]
  viability, T/C: 91%
[28]
  viability, T/C: 83.3%
[29]
  viability, T/C: 37.2%
[30]
  viability, T/C: 21.5%
[31]
  viability, T/C: 95.7%
[32]
  viability, T/C: 87.1%
[33]
  viability, T/C: 92.7%
[34]
  viability, T/C: 87.5%
[35]
  viability, T/C: 31.8%
[36]
  viability, T/C: 27.8%

## Nc1ccn(C2OC(CO)C(O)C2(F)F)c(=O)n1 (stereo not given) + Cc1cccc(N(C)C(=O)C2C(O)CCN2c2nc(C)cc(C(F)(F)F)c2C#N)c1
Second compound 0.0316 µM
  IC50: 169 nM
Second compound 0.1 µM
  IC50: 175 nM
Second compound 0.316 µM
  IC50: 117 nM
Second compound 1 µM
  IC50: 141 nM
Second compound 3.16 µM
  IC50: 146 nM
Second compound 10 µM
  IC50: 126 nM
[1]
  viability, T/C: 81.5%
[2]
  viability, T/C: 62.4%
[3]
  viability, T/C: 35.5%
[4]
  viability, T/C: 15.5%
[5]
  viability, T/C: 13.2%
[6]
  viability, T/C: 11.9%
[7]
  viability, T/C: 82.9%
[8]
  viability, T/C: 68.2%
[9]
  viability, T/C: 30.5%
[10]
  viability, T/C: 15.2%
[11]
  viability, T/C: 12.4%
[12]
  viability, T/C: 7.96%
[13]
  viability, T/C: 73.8%
[14]
  viability, T/C: 54%
[15]
  viability, T/C: 26.5%
[16]
  viability, T/C: 15.5%
[17]
  viability, T/C: 13.2%
[18]
  viability, T/C: 10.8%
[19]
  viability, T/C: 78.3%
[20]
  viability, T/C: 61.4%
[21]
  viability, T/C: 23.1%
[22]
  viability, T/C: 18.2%
[23]
  viability, T/C: 12.1%
[24]
  viability, T/C: 10%
[25]
  viability, T/C: 65.2%
[26]
  viability, T/C: 60%
[27]
  viability, T/C: 30.7%
[28]
  viability, T/C: 15.7%
[29]
  viability, T/C: 10.1%
[30]
  viability, T/C: 10.3%
[31]
  viability, T/C: 80.6%
[32]
  viability, T/C: 53.7%
[33]
  viability, T/C: 33.6%
[34]
  viability, T/C: 17.4%
[35]
  viability, T/C: 12.2%
[36]
  viability, T/C: 11.4%

## O=C(c1cc(Cc2n[nH]c(=O)c3ccccc23)ccc1F)N1CCN(C(=O)C2CC2)CC1 + Nc1ccc(C#CCN(C(=O)Cc2ncc(C(F)(F)F)cc2C(F)(F)F)c2ccc(F)cc2)nn1
Second compound 0.0316 µM
  IC50: > 10000 nM
Second compound 0.1 µM
  IC50: > 10000 nM
Second compound 0.316 µM
  IC50: > 10000 nM
Second compound 1 µM
  IC50: > 10000 nM
Second compound 3.16 µM
  IC50: > 10000 nM
Second compound 10 µM
  IC50: > 10000 nM
[1]
  viability, T/C: 84.3%
[2]
  viability, T/C: 109%
[3]
  viability, T/C: 94.2%
[4]
  viability, T/C: 81.7%
[5]
  viability, T/C: 97.1%
[6]
  viability, T/C: 88.1%
[7]
  viability, T/C: 102%
[8]
  viability, T/C: 104%
[9]
  viability, T/C: 105%
[10]
  viability, T/C: 84.9%
[11]
  viability, T/C: 99.1%
[12]
  viability, T/C: 106%
[13]
  viability, T/C: 101%
[14]
  viability, T/C: 81.2%
[15]
  viability, T/C: 83.8%
[16]
  viability, T/C: 94.7%
[17]
  viability, T/C: 98.2%
[18]
  viability, T/C: 83.4%
[19]
  viability, T/C: 104%
[20]
  viability, T/C: 98.4%
[21]
  viability, T/C: 90.5%
[22]
  viability, T/C: 94.8%
[23]
  viability, T/C: 82.6%
[24]
  viability, T/C: 87.5%
[25]
  viability, T/C: 90.7%
[26]
  viability, T/C: 106%
[27]
  viability, T/C: 92.9%
[28]
  viability, T/C: 95%
[29]
  viability, T/C: 101%
[30]
  viability, T/C: 90.9%
[31]
  viability, T/C: 88.1%
[32]
  viability, T/C: 93.9%
[33]
  viability, T/C: 95.5%
[34]
  viability, T/C: 89%
[35]
  viability, T/C: 74%
[36]
  viability, T/C: 83.9%
